Laboratory results published in PubChem BioAssay (NCI).
Several values for one entry are separate records, joined by “and”; a condition that tells them apart may be missing. Identical values can stand only once.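 Interpolation was linear, between the two tested concentrations surrounding the appropriate level; five concentrations were tested over 48 hours in 96-well plates. GI50 = concentration required for 50% inhibition of growth. Definition used: TGI = concentration required for complete inhibition of growth.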

Columns and labels:
Test in all cases: inhibition of tumour cell growth, NCI panel, 48 h
[1] = tested on: LOX IMVI melanoma
[2] = tested on: U251 CNS
[3] = tested on: MDA-MB-231 breast
[4] = tested on: MOLT-4 leukemia
[5] = tested on: UACC-257 melanoma
[6] = tested on: UO-31 renal
[7] = tested on: NCI-H226 lung
[8] = tested on: M14 melanoma
[9] = tested on: ACHN renal

Row | Structure (SMILES) | GI50 [1] | TGI [1] [µM] | GI50 [2] [µM] | TGI [2] [µM] | TGI [3] [µM] | GI50 [4] [µM] | TGI [4] | TGI [5] [µM] | GI50 [6] [µM] | TGI [6] | TGI [7] | GI50 [8] [µM] | TGI [8] [µM] | GI50 [9] [µM] | TGI [9] | GI50 [5] [µM] | GI50 [7] [µM] | GI50 [3] [µM]
1 | CCOC(=O)c1ccc(N[C@@H]2c3cc4c(cc3C(c3cc(OC)c(O)c(OC)c3)[C@H]3C(=O)OCC32)OCO4)cc1 (some centres undefined) | 0.217 µM and 0.118 µM | 1.61 | 0.203 | 3.27 | 4.76 | 0.0271 | 0.219 µM and 0.158 µM | 25 | 0.394 | 0.982 µM and 3.4 µM | 0.719 µM and 1.95 µM | 0.353 | 4.32 | 0.161 | 0.75 µM and 1.44 µM |  |  | 
2 | O=C1CC2=CCCC2O1 (centres undefined) |  | > 100 |  | > 100 |  |  | > 100 µM | > 100 |  | > 100 µM |  |  | > 100 |  |  |  |  | 
3 | NNC(=S)N/N=C(\c1nc2ccc(Cl)cc2[nH]c1=O)C(O)c1cccc([N+](=O)[O-])c1 (centres undefined) |  | > 56.6 |  | > 100 |  |  | > 100 µM | > 100 |  | > 100 µM | > 100 µM |  | > 88 |  | > 100 µM |  |  | 
4 | CC[C@@]1(O)C(=O)OCc2c1cc1n(c2=O)Cc2cc3c(N)c(OC)ccc3nc2-1 | 0.0216 µM | 0.151 | < 0.01 | 0.201 |  | < 0.01 | 0.0711 µM | 2.15 | 0.0547 | 0.25 µM | > 100 µM | 0.0403 | 0.339 | 0.0255 | 0.0767 µM | 0.219 | 1.77 | 
5 | Cc1ccccc1-c1cc(=O)c2cc(C)c(C)c(C(=O)O)c2o1 |  | > 100 |  | > 100 |  |  | > 100 µM | > 100 |  | > 100 µM | > 100 µM |  | > 100 |  | > 100 µM |  |  | 
6 | COc1ccc(C2=NC(CO)[C@H](c3ccccc3)O2)cc1OC (some centres undefined) |  | > 100 |  |  |  |  | > 100 µM | > 100 |  | > 100 µM | > 100 µM |  | > 100 |  | > 100 µM |  |  | 
7 | NC(=O)c1c(-c2ccccc2)c(-c2ccccc2)cc2c(=O)c3ccccc3[nH]c12 |  | > 100 |  | > 100 |  |  | 44.7 µM | > 100 |  | 80.2 µM |  |  | > 100 |  | 37.7 µM |  |  | 
8 | O=C1C=C(c2ccccc2)NC1(c1ccccc1)c1cc(-c2ccccc2)[nH]c1-c1ccccc1 (centres undefined) |  |  |  | > 100 |  |  | > 100 µM | > 100 |  | > 100 µM |  |  | > 100 |  | > 100 µM |  |  | 
9 | CCOC(=O)N1C/C(=C\c2ccc(N(C)C)cc2)C(=O)/C(=C/c2ccc(N(C)C)cc2)C1 |  | > 100 |  | > 100 |  |  | > 100 µM | > 100 |  | > 100 µM |  |  | > 100 |  | > 100 µM |  |  | 
10 | Cc1cc(N)c2cc(NC(=O)/C=C\c3ccccc3Cl)ccc2n1 | 0.212 µM | 0.447 | 0.269 | 0.724 | 2.47 | 1.09 | 2.54 µM | 3.23 | 1.78 | 3.22 µM | 3.69 µM | 0.748 | 2.02 | 1.83 | 3.26 µM | 1.76 | 2.01 | 1.21
11 | COc1ccc(C)cc1-c1ccc(-c2cc(C)ccc2OC)o1 |  | > 100 |  | > 100 |  |  | > 100 µM | > 100 |  | > 100 µM | > 100 µM |  | > 100 |  | > 100 µM |  |  | 
12 | CN(C)c1ccc(-c2nc(N)nc3c2CCCC3)cc1 |  | > 100 |  | > 100 |  |  | > 100 µM |  |  | > 100 µM | > 100 µM |  | > 100 |  | 76.9 µM |  |  | 
13 | COc1cc(Br)c(C=Nc2cccc3ccc(OS(=O)(=O)c4ccc([N+](=O)[O-])cc4)cc23)cc1OC |  | > 100 |  | > 100 |  |  | > 100 µM | > 100 |  | > 100 µM | > 100 µM |  |  |  | > 100 µM |  |  | 
14 | COc1ccc(C(=O)c2no[n+]([O-])c2C(=O)c2ccc(OC)cc2)cc1 | 1.14 µM | 2.53 | 2.53 | 7.07 | 8.16 | 1.93 | 4.25 µM | 10.4 | 0.588 | 1.17 µM | > 64.3 µM | 3.5 | 11.7 | 1.9 | 3.4 µM | 3.46 | 25.8 | 2.77
15 | O=S(=O)(c1ccccc1)C1(C2(S(=O)(=O)c3ccccc3)CCN=N2)CCN=N1 (centres undefined) |  | > 100 |  | > 100 |  |  | > 100 µM | > 100 |  | > 100 µM | > 100 µM |  | > 100 |  | > 100 µM |  |  | 
16 | O=C1C[C@@H]2[C@@H](C=CC23CCCC3)N1O |  | > 100 |  | > 100 |  |  | > 100 µM | > 100 |  | > 100 µM | > 100 µM |  | > 100 |  | > 100 µM |  |  | 
